Measured values published in paper PMC12153338, “Resistance to oxyimino-cephalosporins conferred by an alternative mechanism of hydrolysis by the Acinetobacter-derived cephalosporinase-33 (ADC-33), a class C β-lactamase present in carbapenem-resistant Acinetobacter baumannii (CRAb)” (mBio, 2025).
≈ marks a conversion by molar mass, not a printed value. Read-outs that look alike come from different tables or passages of the source.

Assays:
[1] = tested on: DH10B Escherichia coli pBCSK− no insert; assay: MIC by broth microdilution, DH10B E. coli with pBCSK− no insert; type: cell-based; conditions: DH10B E. coli with pBCSK− no insert (control strain), FDC in iron-depleted cation-adjusted MH broth
Procedure: (§1) Susceptibility testing to standard antibiotics was performed by broth microdilution according to 2024 Clinical and Laboratory Standards Institute (CLSI) guidelines ([38]). MICs for FDC were done in iron-depleted cation-adjusted Mueller-Hinton (MH) broth according to CLSI methods. All MICs were interpreted according to the 2024 CLSI guidelines ([38]). MICs are done in triplicate, and the mode MIC value is reported.
(§2) blaADC-7 pBCSK− was cloned and expressed in E. coli DH10B cells as previously described for MIC determinations ([3]). The pBCSK-non-inducible phagemid vector has a chloramphenicol resistance gene used to aid selection. All other blaADC variants were synthesized by GenScript according to the blaADC-7 pBCSK− strategy, cloning into the XbaI/BamHI sites of the pBCSK− vector ([5]).

[2] = tested on: ADC-217 in DH10B Escherichia coli; assay: MIC by broth microdilution, ADC-217 in DH10B E. coli; type: cell-based; conditions: DH10B E. coli expressing ADC-217 (non-Adup) from pBCSK−, FDC in iron-depleted cation-adjusted MH broth, mode of triplicate
Procedure: as §1, §2

[3] = tested on: ADC-33 in DH10B Escherichia coli; assay: MIC by broth microdilution, ADC-33 in DH10B E. coli; type: cell-based; conditions: DH10B E. coli expressing ADC-33 (Adup) from pBCSK−, FDC in iron-depleted cation-adjusted MH broth, mode of triplicate
Procedure: as §1, §2

[4] = tested on: ADC-172 in DH10B Escherichia coli; assay: MIC by broth microdilution, ADC-172 in DH10B E. coli; type: cell-based; conditions: for MIC: DH10B E. coli expressing ADC-172 (Adup) from pBCSK−, FDC in iron-depleted cation-adjusted MH broth, mode of triplicate
Procedure: as §1, §2

[5] = tested on: ADC-218 in DH10B Escherichia coli; assay: MIC by broth microdilution, ADC-218 in DH10B E. coli; type: cell-based; conditions: DH10B E. coli expressing ADC-218 (Adup) from pBCSK−, FDC in iron-depleted cation-adjusted MH broth, mode of triplicate
Procedure: as §1, §2

DH10B alone = assay: MIC by broth microdilution, DH10B alone; type: cell-based; conditions: Escherichia coli; DH10B alone (control strain); FDC in iron-depleted cation-adjusted MH broth
Procedure: as §1, §2

ADC-7 = ADC-7 (Acinetobacter baumannii, UniProt Q6DRA1); assay: Competition kinetics with nitrocefin (Ki), ADC-7; type: biochemical; conditions: 3 min pre-incubation, Cheng-Prusoff corrected
Procedure: (§3) For inhibition kinetics, utilizing NCF as a colorimetric substrate of ADCs, the inhibition constant (Ki) of CAZ and FDC with ADCs was determined using competition kinetics as previously described ([5]). After a 3 min pre-incubation of the enzyme (2 nM) with increasing concentration of the inhibitor, measurements of the initial velocities were performed with the addition of 100–200 µM NCF (twofold of the experimentally determined KM value). To determine the average velocities (v0), data from three experiments were fit to the followingequation: […]
(§4) where vu represents the NCF uninhibited velocity and IC50 represents the inhibitor concentration that results in a 50% reduction of vu. The Ki value was corrected for the NCF affinity (KM values for each ADC) with the Cheng-Prusoff ([5]) equation: […]
(§5) The standard error for Ki values was generated by factoring in the larger of the proportional standard errors for the individual IC50 value and the KM -NCF value.

ADC-30 [6] = target: T1, ADC-30 (Acinetobacter baumannii, UniProt A7XM81); assay: Competition kinetics with nitrocefin (Ki), ADC-30; type: biochemical; conditions: 3 min pre-incubation, Cheng-Prusoff corrected
Procedure: as §3, §4, §5

ADC-73 = ADC-73 (Acinetobacter baumannii, UniProt A0A059ZDI2); assay: Competition kinetics with nitrocefin (Ki), ADC-73; type: biochemical; conditions: 3 min pre-incubation, Cheng-Prusoff corrected
Procedure: as §3, §4, §5

ADC-143 = ADC-143 (Acinetobacter baumannii, UniProt Q6DRA1, Q144K, form not given); assay: Competition kinetics with nitrocefin (Ki), ADC-143; type: biochemical; conditions: 3 min pre-incubation, Cheng-Prusoff corrected
Procedure: as §3, §4, §5

ADC-217 [7] = target: T2, ADC-217 (Acinetobacter baumannii, UniProt Q6DRA1, V286E, form not given); assay: Competition kinetics with nitrocefin (Ki), ADC-217; type: biochemical; conditions: 3 min pre-incubation, Cheng-Prusoff corrected
Procedure: as §3, §4, §5

ADC-33 [8] = target: T3, ADC-33 (Acinetobacter baumannii, UniProt A7Y407); assay: Competition kinetics with nitrocefin (Ki), ADC-33; type: biochemical; conditions: 3 min pre-incubation, Cheng-Prusoff corrected
Procedure: as §3, §4, §5

ADC-172 = ADC-172 (Acinetobacter baumannii, UniProt A7Y407, N321K); assay: Competition kinetics with nitrocefin (Ki), ADC-172; type: biochemical; conditions: 3 min pre-incubation, Cheng-Prusoff corrected
Procedure: as §3, §4, §5

ADC-30 [9] = target: T1, ADC-30; assay: Timed electrospray ionization mass spectrometry of acylated adducts, ADC-30; type: binding; conditions: ADC-30, +468 Da adduct, at 1 h; enzyme:substrate 1:25
Procedure: (§6) β-Lactamase (5 µg) was incubated with substrate at a molar ratio of 1:25 (FDC, CAZ, meropenem [MEM]) in sterile 10 mM PBS, pH 7.4, for a total reaction volume of 20 µL (t = 30 s, 1 min, 15 min, 30 min, 1 h, 2 h, and 24 h). Reactions were quenched with 1% acetonitrile and 0.1% formic acid. Samples were analyzed using Q-TOF Waters Synapt-G2-Si and a Waters Acquity ultrapressure liquid chromatography BEH C18 column (1.7 µm […]; 2.1 × 50 mm). MassLynx v.4.1 was used to deconvolute protein peaks. The tune settings for each data run were as follows: capillary voltage at 3.5 kV, sampling cone at 35, source offset at 35, source temperature 100°C, desolvation temperature 500°C, cone gas at 100 L/h, desolvation gas at 800 L/h, and nebulizer bar at 6.0. Mobile phase A was 0.1% formic acid-water. Mobile phase B was 0.1% formic acid-acetonitrile. The mass accuracy for this system is ±5 Da. Mass spectrometry experiments were performed once over a range of time points.

ADC-33 [10] = target: T3, ADC-33; assay: Timed electrospray ionization mass spectrometry of acylated adducts, ADC-33; type: binding; conditions: ADC-33, incubation 30 s–1 h; enzyme:substrate 1:25
Procedure: as §6

ADC-30 [11] = target: T1, ADC-30; assay: Thermal denaturation by circular dichroism, ADC-30; type: binding; conditions: ADC-30 12 µM, 1 mM antibiotic, PBS pH 7.4; read-out: change of Tm of the β-lactamase on addition of antibiotic
Procedure: (§7) For thermal denaturation, protein samples were monitored for helical content by circular dichroism in the far-UV region at 210 and 220 nm using a Jasco J-815 spectrometer (Easton, MD) with a Peltier-effect temperature controller, as previously described ([41]). Enzyme concentrations were 12 µM in phosphate-buffered saline (PBS) pH 7.4. The thermodynamic stability of apoADC-30 and ADC-33, and with 1 mM FDC and CAZ, was determined from equilibrium unfolding curves. With the assumption of a reversible two-state transition, we determined the Tm at the midpoint of equilibrium folding. Thermal denaturation experiments were done in duplicate under the same conditions, with each data point representing the average of three successive scans, and the Tm values are consistent with ±1°C variation.

ADC-33 [12] = target: T3, ADC-33; assay: Thermal denaturation by circular dichroism, ADC-33; type: binding; conditions: ADC-33 12 µM, 1 mM antibiotic, PBS pH 7.4
Procedure: as §7

ADC-33 [13] = target: T3, ADC-33; conditions: hydrolysis by ADC-33; previously determined; cited from earlier work
CRAb isolates = conditions: certain CRAb isolates with elevated MICs; cited from earlier work
[14] = tested on: ADC-7 in DH10B Escherichia coli; assay: MIC by broth microdilution, ADC-7 in DH10B E. coli; type: cell-based; conditions: DH10B E. coli expressing ADC-7 (non-Adup) from pBCSK−, FDC in iron-depleted cation-adjusted MH broth, mode of triplicate
Procedure: as §1, §2

[15] = tested on: ADC-30 in DH10B Escherichia coli; assay: MIC by broth microdilution, ADC-30 in DH10B E. coli; type: cell-based; conditions: DH10B E. coli expressing ADC-30 (non-Adup) from pBCSK−, FDC in iron-depleted cation-adjusted MH broth, mode of triplicate
Procedure: as §1, §2

[16] = tested on: ADC-73 in DH10B Escherichia coli; assay: MIC by broth microdilution, ADC-73 in DH10B E. coli; type: cell-based; conditions: DH10B E. coli expressing ADC-73 (non-Adup) from pBCSK−, FDC in iron-depleted cation-adjusted MH broth, mode of triplicate
Procedure: as §1, §2

[17] = tested on: ADC-143 in DH10B Escherichia coli; assay: MIC by broth microdilution, ADC-143 in DH10B E. coli; type: cell-based; conditions: DH10B E. coli expressing ADC-143 (non-Adup) from pBCSK−, FDC in iron-depleted cation-adjusted MH broth, mode of triplicate
Procedure: as §1, §2

[18] = tested on: ADC-219 in DH10B Escherichia coli; assay: MIC by broth microdilution, ADC-219 in DH10B E. coli; type: cell-based; conditions: DH10B E. coli expressing ADC-219 (Adup) from pBCSK−, FDC in iron-depleted cation-adjusted MH broth, mode of triplicate
Procedure: as §1, §2

ADC-217 [19] = target: T2, ADC-217; assay: Steady-state hydrolysis kinetics, ADC-217; type: biochemical; conditions: hydrolysis by ADC-217
Procedure: Steady-state kinetic parameters were determined by combining pure enzyme with antibiotic substrates in 50 mM NaH2PO4, pH 7.4, at room temperature. Changes in absorbance were measured on the Cary 60 UV−Vis spectrophotometer (Agilent Technologies) and converted to velocity using the change in extinction coefficient specific to nitrocefin (NCF) (ε482 = 17,400 M^−1·cm^−1), CAZ (ε260 8,660 M^−1·cm^−1), and cefiderocol (ε259 9,430 M^−1·cm^−1). The concentration of enzyme ranged from 0.1 to 1.0 µM, and all kinetic experiments were performed at least in triplicate. Initial velocities were fitted to the Michaelis-Menten equation, yielding kcat and KM values. The standard error for kcat/KM values was generated by factoring in the larger of the proportional standard errors for the individual kcat value and the KM value. For ADC/substrate combinations in which the KM was too large to accurately determine both kcat and KM values, the initial velocities at kcat/KM values were calculated from linear fits of vo in low [S] ranges (<0.08 * KM).

[20] = Escherichia coli, read-out: MIC

SMILES	MIC [1] [µg/mL]	MIC [2] [µg/mL]	MIC [3] [µg/mL]	MIC [4, 20] [µg/mL]	MIC [5] [µg/mL]	MIC (DH10B alone) [µg/mL]	MIC [14] [µg/mL]	MIC [15] [µg/mL]	MIC [16] [µg/mL]	MIC [17] [µg/mL]	MIC [18] [µg/mL]	further results
C[C@@H](O)[C@H]1C(=O)N2C(C(=O)O)=C(SCCN=CN)C[C@H]12 [IPM, imipenem]	0.25 (≈ 0.835 µM)	–	–	–	–	–	–	–	–	–	–	–
CC(C)(O/N=C(\C(=O)N[C@@H]1C(=O)N2C(C(=O)[O-])=C(C[N+]3(CCNC(=O)c4ccc(O)c(O)c4Cl)CCCC3)CS[C@H]12)c1csc(N)n1)C(=O)O [FDC, cefiderocol]	0.125 (≈ 0.166 µM)	0.25 (≈ 0.332 µM)	0.5 (≈ 0.665 µM)	1 (≈ 1.33 µM)	0.5 (≈ 0.665 µM)	0.06 (≈ 0.0798 µM)	–	–	–	–	–	MIC [4]: 1.0 µg/mL (≈ 1.33 µM); Ki (ADC-7): 75 ± 5.32 µM; Ki (ADC-30 [6]): 62.7 ± 3.95 µM; Ki (ADC-73): 111 ± 9.7 µM; Ki (ADC-143): 171 ± 27.7 µM; Ki (ADC-217 [7]): 0.21 ± 0.025 µM; Ki (ADC-33 [8]): 19.3 ± 1.46 µM; Ki (ADC-172): 3.26 ± 0.31 µM; percentage of acylated adduct (ADC-30 [9]): 70%; formation of stable acyl-enzyme adduct (ADC-33 [10]): did not form a stable acyl-enzyme adduct; ΔTm at 1000 µM (ADC-30 [11]): 2 °C; change of Tm of the β-lactamase on addition of antibiotic (ADC-33 [12]): not observed; kcat (ADC-33 [13]): 0.60 s⁻¹; MIC (CRAb isolates): ≥ 64 µg/mL
CO/N=C(\C(=O)N[C@@H]1C(=O)N2C(C(=O)[O-])=C(C[N+]3(C)CCCC3)CS[C@H]12)c1csc(N)n1 [FEP, cefepime]	0.03 (≈ 0.0624 µM)	16 (≈ 33.3 µM)	1 (≈ 2.08 µM)	8 (≈ 16.6 µM)	4 (≈ 8.32 µM)	0.06 (≈ 0.125 µM)	0.5 (≈ 1.04 µM)	0.5 (≈ 1.04 µM)	0.25 (≈ 0.52 µM)	0.25 (≈ 0.52 µM)	0.125 (≈ 0.26 µM)	fold increase in MIC from ADC-30 to ADC-172 ([4]; DH10B E. coli, ADC-172 versus ADC-30): ≤ 16 fold; Km (ADC-217 [19]): 155 µM; kcat (ADC-217 [19]): 30.2 s⁻¹
CO/N=C(\C(=O)N[C@@H]1C(=O)N2C(C(=O)O)=C(COC(C)=O)CS[C@H]12)c1csc(N)n1 [CTX, cefotaxime]	0.06 (≈ 0.132 µM)	64 (≈ 141 µM)	64 (≈ 141 µM)	32 (≈ 70.3 µM)	256 (≈ 562 µM)	0.12 (≈ 0.263 µM)	64 (≈ 141 µM)	32 (≈ 70.3 µM)	32 (≈ 70.3 µM)	32 (≈ 70.3 µM)	32 (≈ 70.3 µM)	–
